Patent publication US9580416B2, “Inhibitors of Bruton's tyrosine kinase” (PHARMACYCLICS LLC, priority 2014, dated 2017)
pIC50: −log10 of the molar value.

Assays:
Assay type in all cases: biochemical
Btk = Btk (Homo sapiens, UniProt Q06187); test: Btk kinase activity, TR-FRET assay; conditions: read-out: Btk (IC50)
Procedure, shortened: (§1)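 Enzyme (Btk 0.5 nM; Lck 6 nM) reacted 1 h with inhibitor, ATP at Km and biotin-peptide substrate in pH 7.4 buffer, 10% DMSO. Phosphopeptide detected by Eu-p-Tyr100 antibody plus streptavidin-APC (665/615 nm). IC50 calculated from fitted Ki(app) via ATP/Km correction plus half total enzyme.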

Lck = Lck (Homo sapiens, UniProt P06239); test: Lck kinase activity, TR-FRET assay; conditions: read-out: LCK (IC50)
Sequence of Lck (P06239 whole entry, species assumed): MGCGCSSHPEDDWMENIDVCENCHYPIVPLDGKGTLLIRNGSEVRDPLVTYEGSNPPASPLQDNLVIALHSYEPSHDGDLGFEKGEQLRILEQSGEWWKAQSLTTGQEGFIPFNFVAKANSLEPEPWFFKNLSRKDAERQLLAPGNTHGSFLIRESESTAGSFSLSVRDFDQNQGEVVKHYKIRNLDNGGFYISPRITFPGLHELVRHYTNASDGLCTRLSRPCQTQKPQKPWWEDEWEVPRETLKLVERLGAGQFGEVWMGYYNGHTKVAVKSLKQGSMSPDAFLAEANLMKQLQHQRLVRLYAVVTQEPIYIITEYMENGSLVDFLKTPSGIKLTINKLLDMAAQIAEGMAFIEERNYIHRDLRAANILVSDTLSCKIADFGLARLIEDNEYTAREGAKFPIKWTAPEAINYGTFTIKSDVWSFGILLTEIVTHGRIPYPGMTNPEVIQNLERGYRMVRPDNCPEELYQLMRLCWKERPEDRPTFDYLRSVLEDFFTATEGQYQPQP
Procedure, shortened: as §1

EGFR = EGFR (Homo sapiens, UniProt P00533); test: Inhibition of a panel of kinases, in vitro HotSpot kinase assay: EGFR
Sequence of EGFR (P00533 25-1210): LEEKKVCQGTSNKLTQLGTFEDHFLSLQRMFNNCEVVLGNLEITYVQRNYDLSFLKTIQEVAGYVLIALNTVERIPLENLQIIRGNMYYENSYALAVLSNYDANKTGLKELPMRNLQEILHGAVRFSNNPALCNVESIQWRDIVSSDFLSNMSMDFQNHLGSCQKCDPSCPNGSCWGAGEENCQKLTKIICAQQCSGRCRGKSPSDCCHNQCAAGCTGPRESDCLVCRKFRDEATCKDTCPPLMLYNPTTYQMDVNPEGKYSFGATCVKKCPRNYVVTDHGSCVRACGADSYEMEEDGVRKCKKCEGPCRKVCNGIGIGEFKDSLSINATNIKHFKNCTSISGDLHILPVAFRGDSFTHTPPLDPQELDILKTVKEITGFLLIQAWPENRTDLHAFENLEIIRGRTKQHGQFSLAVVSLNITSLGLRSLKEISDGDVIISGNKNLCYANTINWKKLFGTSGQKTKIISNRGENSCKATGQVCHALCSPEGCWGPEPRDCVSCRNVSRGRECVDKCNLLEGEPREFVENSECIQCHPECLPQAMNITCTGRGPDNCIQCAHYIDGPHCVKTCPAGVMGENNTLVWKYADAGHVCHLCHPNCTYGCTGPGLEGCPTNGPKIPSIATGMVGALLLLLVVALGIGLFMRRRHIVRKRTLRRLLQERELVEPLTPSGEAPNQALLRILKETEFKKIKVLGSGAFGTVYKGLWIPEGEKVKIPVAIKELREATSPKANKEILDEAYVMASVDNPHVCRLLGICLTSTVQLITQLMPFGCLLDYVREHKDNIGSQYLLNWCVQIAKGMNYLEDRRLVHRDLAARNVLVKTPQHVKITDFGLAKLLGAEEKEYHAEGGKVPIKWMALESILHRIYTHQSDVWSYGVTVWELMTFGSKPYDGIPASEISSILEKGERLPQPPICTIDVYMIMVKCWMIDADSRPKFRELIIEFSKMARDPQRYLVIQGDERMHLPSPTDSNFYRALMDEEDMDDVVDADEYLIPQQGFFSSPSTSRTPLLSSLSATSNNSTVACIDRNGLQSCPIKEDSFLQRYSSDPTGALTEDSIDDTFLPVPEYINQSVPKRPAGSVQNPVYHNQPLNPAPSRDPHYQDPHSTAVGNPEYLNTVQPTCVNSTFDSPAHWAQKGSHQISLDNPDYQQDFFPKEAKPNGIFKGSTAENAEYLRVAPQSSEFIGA
Experimental: (§2) The degree of inhibition of a panel of kinases is determined using the in vitro HotSpot kinase assay (purified enzymes, ^33P-ATP, an appropriate substrate and 1 uM ATP).

JAK3 = biological target: T1, JAK3 (Homo sapiens, UniProt P52333); test: Inhibition of a panel of kinases, in vitro HotSpot kinase assay: JAK3
T1 sequence (P52333 1-1124): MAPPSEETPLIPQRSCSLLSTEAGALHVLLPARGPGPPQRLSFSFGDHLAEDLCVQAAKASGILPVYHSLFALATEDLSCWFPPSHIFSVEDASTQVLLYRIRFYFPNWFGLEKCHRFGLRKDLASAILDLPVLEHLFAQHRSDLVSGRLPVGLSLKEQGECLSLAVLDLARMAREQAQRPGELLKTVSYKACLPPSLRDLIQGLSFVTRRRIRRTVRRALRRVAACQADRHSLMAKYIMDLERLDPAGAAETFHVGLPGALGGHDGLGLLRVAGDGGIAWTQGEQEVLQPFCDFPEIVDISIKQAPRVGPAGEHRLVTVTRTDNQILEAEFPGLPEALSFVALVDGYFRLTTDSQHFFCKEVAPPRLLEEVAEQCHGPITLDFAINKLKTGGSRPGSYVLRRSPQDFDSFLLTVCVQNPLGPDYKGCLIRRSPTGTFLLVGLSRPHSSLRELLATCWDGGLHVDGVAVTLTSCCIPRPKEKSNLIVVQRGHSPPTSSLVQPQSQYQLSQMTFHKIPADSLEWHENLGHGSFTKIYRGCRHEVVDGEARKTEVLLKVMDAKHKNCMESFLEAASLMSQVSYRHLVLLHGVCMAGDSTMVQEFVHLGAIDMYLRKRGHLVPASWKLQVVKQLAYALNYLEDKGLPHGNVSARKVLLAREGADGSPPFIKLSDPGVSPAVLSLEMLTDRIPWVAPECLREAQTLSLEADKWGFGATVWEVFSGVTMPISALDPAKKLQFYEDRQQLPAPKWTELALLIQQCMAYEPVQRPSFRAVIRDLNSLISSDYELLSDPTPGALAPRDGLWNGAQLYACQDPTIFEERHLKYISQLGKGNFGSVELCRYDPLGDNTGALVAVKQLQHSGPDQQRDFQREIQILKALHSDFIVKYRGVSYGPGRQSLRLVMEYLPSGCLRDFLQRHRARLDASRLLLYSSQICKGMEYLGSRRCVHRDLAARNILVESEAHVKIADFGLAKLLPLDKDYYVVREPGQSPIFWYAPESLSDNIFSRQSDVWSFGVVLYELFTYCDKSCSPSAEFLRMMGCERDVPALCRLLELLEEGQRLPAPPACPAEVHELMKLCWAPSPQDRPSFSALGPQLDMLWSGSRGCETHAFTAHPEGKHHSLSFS
Experimental: as §2

Sequence of Btk (Q06187 whole entry): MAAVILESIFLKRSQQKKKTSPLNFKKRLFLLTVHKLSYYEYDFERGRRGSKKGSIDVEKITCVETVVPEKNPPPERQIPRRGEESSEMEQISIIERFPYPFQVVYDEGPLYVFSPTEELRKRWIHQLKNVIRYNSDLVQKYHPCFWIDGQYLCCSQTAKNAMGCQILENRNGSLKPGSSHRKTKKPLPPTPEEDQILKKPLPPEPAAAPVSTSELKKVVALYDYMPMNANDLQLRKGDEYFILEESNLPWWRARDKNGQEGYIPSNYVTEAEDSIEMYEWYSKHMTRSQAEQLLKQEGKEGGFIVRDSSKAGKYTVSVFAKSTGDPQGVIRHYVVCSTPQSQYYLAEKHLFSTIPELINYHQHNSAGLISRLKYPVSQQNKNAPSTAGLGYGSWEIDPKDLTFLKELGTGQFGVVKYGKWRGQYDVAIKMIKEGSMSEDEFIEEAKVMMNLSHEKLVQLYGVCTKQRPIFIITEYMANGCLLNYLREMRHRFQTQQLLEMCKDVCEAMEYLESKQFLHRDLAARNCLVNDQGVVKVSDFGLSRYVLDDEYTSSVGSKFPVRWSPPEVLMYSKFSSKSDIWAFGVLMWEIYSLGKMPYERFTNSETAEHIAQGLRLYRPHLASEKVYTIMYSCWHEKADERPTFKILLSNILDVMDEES

Row | Structure (SMILES) | pIC50 (Btk) | pIC50 (Lck) | pIC50 (EGFR) | pIC50 (JAK3)
1 | CC1(C(=O)N2CCC[C@@H](Nc3n[nH]c4nccc(Oc5ccc(C(=O)Nc6ccccn6)cc5)c34)C2)CCOCC1 [compound 112, 4-[(3-{[(3R)-1-(4-methyloxane-4-carbonyl)piperidin-3-yl]amino}-1H-pyrazolo[3,4-b]pyridin-4-yl)oxy]N-(pyridin-2-yl)benzamide] | > 7.00 | 5.00 to 6.00 | < 5.00 | < 5.00
2 | Cc1cccc(NC(=O)c2ccc(Oc3ccnc4[nH]nc(N[C@@H]5CCCN(C(=O)C6(C)COC6)C5)c34)cc2)n1 [compound 113, 4-[(3-{[(3R)-1-(3-methyloxetane-3-carbonyl)piperidin-3-yl]amino}-1H-pyrazolo[3,4-b]pyridin-4-yl)oxy]-N-(6-methylpyridin-2-yl)benzamide] | 6.00 to 7.00 | 5.00 to 6.00 | < 5.00 | < 5.00
3 | Cc1cccc(NC(=O)c2ccc(Oc3ccnc4[nH]nc(N[C@@H]5CCCN(C(=O)C6(C)CCOCC6)C5)c34)cc2)n1 [compound 114, 4-[(3-{[(3R)-1-(4-methyloxane-4-carbonyl)piperidin-3-yl]amino}-1H-pyrazolo[3,4-b]pyridin-4-yl)oxy]-N-(6-methylpyridin-2-yl)benzamide] | 6.00 to 7.00 | 5.00 to 6.00 | < 5.00 | < 5.00
4 | Cc1ccnc(NC(=O)c2ccc(Oc3ccnc4[nH]nc(N[C@@H]5CCCN(C(=O)[C@@H]6CCOC6)C5)c34)cc2)c1 [compound 115, N-(4-methylpyridin-2-yl)-4-[(3-{[(3R)-1-[(3R)-oxolane-3-carbonyl]piperidin-3-yl]amino}-1H-pyrazolo[3,4-b]pyridin-4-yl)oxy]benzamide] | > 7.00 | 6.00 to 7.00 | < 5.00 | < 5.00
5 | Cc1ccnc(NC(=O)c2ccc(Oc3ccnc4[nH]nc(N[C@@H]5CCCN(C(=O)[C@H]6CCOC6)C5)c34)cc2)c1 [compound 116, N-(4-methylpyridin-2-yl)-4-[(3-{[(3R)-1-[(3S)-oxolane-3-carbonyl]piperidin-3-yl]amino}-1H-pyrazolo[3,4-b]pyridin-4-yl)oxy]benzamide] | > 7.00 | 6.00 to 7.00 | 5.00 to 6.00 | < 5.00
6 | Cc1ccnc(NC(=O)c2ccc(Oc3ccnc4[nH]nc(N[C@@H]5CCCN(C(=O)[C@@H]6CCCO6)C5)c34)cc2)c1 [compound 117, N-(4-methylpyridin-2-yl)-4-[(3-{[(3R)-1-[(2S)-oxolane-2-carbonyl]piperidin-3-yl]amino}-1H-pyrazolo[3,4-b]pyridin-4-yl)oxy]benzamide] | > 7.00 | < 5.00 | < 5.00 | 5.00 to 6.00
7 | Cc1ccnc(NC(=O)c2ccc(Oc3ccnc4[nH]nc(N[C@@H]5CCCN(C(=O)CCN(C)C)C5)c34)cc2)c1 [compound 118, 4-[(3-{[(3R)-1-[3-(dimethylamino)propanoyl]piperidin-3-yl]amino}-1H-pyrazolo[3,4-b]pyridin-4-yl)oxy]-N-(4-methylpyridin-2-yl)benzamide] | > 7.00 | > 7.00 | 5.00 to 6.00 | < 5.00
8 | COCCC(=O)N1CCC[C@@H](Nc2n[nH]c3nccc(Oc4ccc(C(=O)Nc5cc(C)ccn5)cc4)c23)C1 [compound 119, 4-[(3-{[(3R)-1-(3-methoxypropanoyl)piperidin-3-yl]amino}-1H-pyrazolo[3,4-b]pyridin-4-yl)oxy]-N-(4-methylpyridin-2-yl)benzamide] | > 7.00 | 6.00 to 7.00 | 5.00 to 6.00 | < 5.00
9 | Cc1ccnc(NC(=O)c2ccc(Oc3ccnc4[nH]nc(N[C@@H]5CCCN(C(=O)C6(C)CC6)C5)c34)cc2)c1 [compound 120, 4-[(3-{[(3R)-1-(1-methylcyclopropanecarbonyl)piperidin-3-yl]amino}-1H-pyrazolo[3,4-b]pyridin-4-yl)oxy]-N-(4-methylpyridin-2-yl)benzamide] | > 7.00 | 6.00 to 7.00 | < 5.00 | < 5.00
10 | C=CC(=O)N1CC[C@@H](Nc2n[nH]c3nccc(Oc4cccc(C(=O)Nc5ccc(C(C)C)c(C)c5)c4)c23)C1 [compound 122, N-[3-methyl-4-(propan-2-yl)phenyl]-3-[(3-{[(3R)-1-(prop-2-enoyl)pyrrolidin-3-yl]amino}-1H-pyrazolo[3,4-b]pyridin-4-yl)oxy]benzamide] | > 7.00 | > 7.00 | 6.00 to 7.00 | > 7.00
11 | CC(=O)N1CC[C@@H](Nc2n[nH]c3nccc(Oc4cccc(C(=O)Nc5ccc(C(C)C)c(C)c5)c4)c23)C1 [compound 123, 3-[(3-{[(3R)-1-acetylpyrrolidin-3-yl]amino}-1H-pyrazolo[3,4-b]pyridin-4-yl)oxy]-N-[3-methyl-4-(propan-2-yl)phenyl]benzamide] | 6.00 to 7.00 | > 7.00 | 5.00 to 6.00 | 5.00 to 6.00
12 | CC(=O)N1CC[C@H](Nc2n[nH]c3nccc(Oc4cccc(C(=O)Nc5ccc(C(C)C)c(C)c5)c4)c23)C1 [compound 124, 3-[(3-{[(3S)-1-acetylpyrrolidin-3-yl]amino}-1H-pyrazolo[3,4-b]pyridin-4-yl)oxy]-N-[3-methyl-4-(propan-2-yl)phenyl]benzamide] | 6.00 to 7.00 | > 7.00 | 5.00 to 6.00 | 5.00 to 6.00
13 | Cc1cc(NC(=O)c2cccc(Oc3ccnc4[nH]nc(N[C@H]5CCN(C(=O)C6CC6)C5)c34)c2)ccc1C(C)C [compound 125, 3-[(3-{[(3S)-1-cyclopropanecarbonylpyrrolidin-3-yl]amino}-1H-pyrazolo[3,4-b]pyridin-4-yl)oxy]-N-[3-methyl-4-(propan-2-yl)phenyl]benzamide] | 6.00 to 7.00 | > 7.00 | < 5.00 | 5.00 to 6.00
14 | C=CC(=O)N1CC[C@H](Nc2n[nH]c3nccc(Oc4cccc(C(=O)Nc5ccc(C(C)C)c(C)c5)c4)c23)C1 [compound 126, N-[3-methyl-4-(propan-2-yl)phenyl]-3-[(3-{[(3S)-1-(prop-2-enoyl)pyrrolidin-3-yl]amino}-1H-pyrazolo[3,4-b]pyridin-4-yl)oxy]benzamide] | 6.00 to 7.00 | > 7.00 | 5.00 to 6.00 | 6.00 to 7.00
15 | Cc1cc(NC(=O)c2cccc(Oc3ccnc4[nH]nc(N[C@H]5CCN(C(=O)c6ccc(F)cc6)C5)c34)c2)ccc1C(C)C [compound 128, 3-[(3-{[(3S)-1-(4-fluorobenzoyl)pyrrolidin-3-yl]amino}-1H-pyrazolo[3,4-b]pyridin-4-yl)oxy]-N-[3-methyl-4-(propan-2-yl)phenyl]benzamide] | 6.00 to 7.00 | > 7.00 | < 5.00 | < 5.00
16 | C=CC(=O)N1CCC[C@@H](Oc2n[nH]c3nccc(Nc4cccc(C(=O)Nc5ccc(C(C)C)c(C)c5)c4)c23)C1 [compound 132, N-[3-methyl-4-(propan-2-yl)phenyl]-3-[(3-{[(3R)-1-(prop-2-enoyl)piperidin-3-yl]oxy}-1H-pyrazolo[3,4-b]pyridin-4-yl)amino]benzamide] | > 7.00 | 5.00 to 6.00 | > 7.00 | > 7.00
17 | Cc1cc(NC(=O)c2cccc(Nc3ccnc4[nH]nc(N[C@@H]5CCCN(C(=O)N6CCOCC6)C5)c34)c2)ccc1C(C)C [compound 133, N-[3-methyl-4-(propan-2-yl)phenyl]-3-[(3-{[(3R)-1-(morpholine-4-carbonyl)piperidin-3-yl]amino}-1H-pyrazolo[3,4-b]pyridin-4-yl)amino]benzamide] | 6.00 to 7.00 | 5.00 to 6.00 | < 5.00 | < 5.00
18 | Cc1cc(NC(=O)c2cccc(Nc3ccnc4[nH]nc(O[C@@H]5CCCN(C(=O)C6CC6)C5)c34)c2)ccc1C(C)C [compound 134, 3-[(3-{[(3R)-1-cyclopropanecarbonylpiperidin-3-yl]oxy}-1H-pyrazolo[3,4-b]pyridin-4-yl)amino]-N-[3-methyl-4-(propan-2-yl)phenyl]benzamide] | 6.00 to 7.00 | 5.00 to 6.00 | < 5.00 | < 5.00
